In one data set the test system is Apolygus lucorum. In words: Insecticidal activity against Apolygus lucorum after 24 hr by larvae-dipping method. The data set is classed as functional.
Data set [1] is described as follows: Toxicity in Rattus norvegicus Sprague-Dawley (rat) assessed as mortality measured after 24 hr administered orally through force feeding method. Conditions: in vivo, po. It is filed as organism-based.
In a further data set the test system is Ostrinia furnacalis. In words: Insecticidal activity against Ostrinia furnacalis (Asian corn borer) after 24 hr by larvae-dipping method. The data set is classed as functional.
Another data set deals with Pieris rapae. In words: Insecticidal activity against Pieris rapae after 24 hr by larvae-dipping method. The data set is classed as functional.
Data set [2] has as its system Helicoverpa zea. In words: Insecticidal activity against Helicoverpa zea (corn earworm) fed on compound pre-treated cabbage leaves assessed as insect mortality measured after 24 hr by leaf-dipping method. It is filed as functional.
The test system of data set [3] is Helicoverpa zea. In words: Insecticidal activity against Helicoverpa zea (corn earworm) fed on compound pre-treated cabbage leaves assessed as insect mortality measured after 48 hr by leaf-dipping method. The data set is classed as functional.
Another data set concerns Chilo suppressalis. The data set is described as follows: Insecticidal activity against Chilo suppressalis (rice stem borer) fed on compound pre-treated rice leaves assessed as insect mortality measured after 3 days by leaf-dipping method. It is filed as functional.
The subject of a further data set is Cnaphalocrocis medinalis. In words: Insecticidal activity against Cnaphalocrocis medinalis fed on compound pre-treated corn leaves assessed as insect mortality measured after 3 days by leaf-dipping method. It is filed as functional.

In brackets after ≈: the same amount, converted by molar mass.

One may read the LC50 as the concentration that kills 50% of the test population. For the molecule `CCOP(=S)(OC)O/N=C(\C#N)c1ccccc1` (racemic), the LC50 in the data set with Apolygus lucorum is 0.00568 µg/mL (≈ 0.02 µM); in the data set on Ostrinia furnacalis, 0.0698 µg/mL (≈ 0.246 µM); with Pieris rapae it was 0.00734 µg/mL (≈ 0.0258 µM). Also, in data set [1], the LD50 at 24 h was found to be 1260 mg/kg.
In the same order, the values of `CCOP(=S)(OCC)O/N=C(\C#N)c1ccccc1` [PHOXIM] are 0.00789 µg/mL (≈ 0.0264 µM), 0.0853 µg/mL (≈ 0.286 µM), 0.0088 µg/mL (≈ 0.0295 µM) and 1200 mg/kg.
Turning to `CCOP(=S)(OCC)Oc1nc(Cl)c(Cl)cc1Cl` [CHLORPYRIFOS], the median lethal concentration (LC50) worked out at 390 µg/mL (≈ 1110 µM) in the data set on Helicoverpa zea [2], 63.9 µg/mL (≈ 182 µM) in the data set on Helicoverpa zea [3], 2.61 µg/mL (≈ 7.44 µM) in the data set with Chilo suppressalis and 13.9 µg/mL (≈ 39.6 µM) in the data set on Cnaphalocrocis medinalis. In data set [1], the LD50 at 24 h came out at 163 mg/kg.
The like results for `CCOP(=S)(OC)Oc1nc(Cl)c(Cl)cc1Cl` (racemic) were, in that order, 94.4 µg/mL (≈ 280 µM), 46.3 µg/mL (≈ 138 µM), 0.27 µg/mL (≈ 0.802 µM), 1.06 µg/mL (≈ 3.15 µM) and 147 mg/kg.

These data come from ChEMBL document CHEMBL3046276, “Preparation and activity study of new organophosphate insecticide candidates” (J Pestic Sci, 2011).
